For 36 compounds, MIC results are on record in patent US8716292B2, “Riminophenazines with 2-(heteroaryl)amino substituents and their anti-microbial activity” (priority 2010, dated 2014).

In brackets after ≈: the same amount, converted by molar mass.

In one assay the test system is Mycobacterium tuberculosis H37Rv strains. As to the kind of experiment: In vitro assay for antimicrobial susceptibility (microplate Alamar blue MIC). It is filed as cell-based. To be noted: Mycobacterium tuberculosis, H37RV, 7H9, Alamar blue, inhibition ≧90%; read-out: MIC (μg/mL) against H37Rv. (In general: Alamar Blue is a resazurin reagent that responds to reducing activity.)
`CC(C)/N=c1\cc2n(-c3ccc(F)cc3)c3ccccc3nc-2cc1Nc1cnccn1` [TBI-1055, 5-(4-Fluorophenyl)-3-(1-methylethyl)imino-2-(pyrazin-2-yl)amino-3,5-dihydrophenazine]: the MIC was 0.022 µg/mL (≈ 0.0518 µM). With `COC1CCC(/N=c2\cc3n(-c4ccc(F)c(F)c4)c4ccccc4nc-3cc2Nc2cnccn2)CC1` (stereo not drawn) [TBI-1445, 5-(3,4-Difluorophenyl)-3-(4-methoxycyclohexyl)imino-2-(pyrazin-2-yl)amino-3,5-dihydrophenazine], the MIC worked out at 0.056 µg/mL (≈ 0.109 µM). As for `CC(C)/N=c1\cc2n(-c3ccc(Cl)cc3)c3ccccc3nc-2cc1Nc1cnccn1` [TBI-1077], the MIC was under 0.0075 µg/mL.

The same assay, now with this note: Mycobacterium tuberculosis, H37RV, in vitro, Mycobacterium tuberculosis H37Rv strains; read-out: MIC (μg/mL) against H37Rv.
In the case of `Cc1ncccc1Nc1cc2nc3ccccc3n(-c3ccc(F)cc3)c-2c/c1=N\C1CCCCC1` [TBI-1023, 5-(4-Fluorophenyl)-3-cyclohexylimino-2-(2-methyl-3-pyridyl)amino-3,5-dihydrophenazine], the MIC amounted to 0.0075 µg/mL (≈ 0.0157 µM). In the case of `Cc1ncccc1Nc1cc2nc3ccccc3n(-c3ccc(C(F)(F)F)cc3)c-2c/c1=N\C1CCC(O)CC1` (stereo not drawn) [TBI-709, 5-(4-Trifluoromethylphenyl)-3-(4-hydroxycyclohexyl)imino-2-(2-methyl-3-pyridyl)amino-3,5-dihydrophenazine], the MIC worked out at 0.108 µg/mL (≈ 0.199 µM). For the compound `COc1ncccc1Nc1cc2nc3ccccc3n(-c3cccc(OC(F)(F)F)c3)c-2c/c1=N\C1CCOCC1` [TBI-1041, 5-(3-Trifluoromethoxyphenyl)-3-(4-tetrahydropyranyl)imino-2-(2-methoxy-3-pyridyl)amino-3,5-dihydrophenazine], the MIC was found to be 0.115 µg/mL (≈ 0.205 µM).

Consider `COc1ncccc1Nc1cc2nc3cc(F)ccc3n(-c3ccc(Cl)c(Cl)c3)c-2c/c1=N\C1CC1` [TBI-875, 8-Fluoro-5-(3,4-dichlorophenyl)-3-cyclopropylimino-2-(2-methoxy-3-pyridyl)amino-3,5-dihydrophenazine], for which the MIC amounted to 0.047 µg/mL (≈ 0.0903 µM). The same measure, in the same setting: next, `COc1ncccc1Nc1cc2nc3cc(F)ccc3n(-c3ccc(Cl)cc3)c-2c/c1=N\C1CCOCC1` [TBI-937, 8-Fluoro-5-(4-chlorophenyl)-3-(4-tetrahydropyranyl)imino-2-(2-methoxy-3-pyridyl)amino-3,5-dihydrophenazine]: 0.125 µg/mL (≈ 0.236 µM); `COc1ncccc1Nc1cc2nc3ccccc3n(-c3ccccc3OC(F)(F)F)c-2c/c1=N\C1CCCCC1` [TBI-1047, 5-(2-Trifluoromethoxyphenyl)-3-cyclohexylimino-2-(2-methoxy-3-pyridyl)amino-3,5-dihydrophenazine]: 0.465 µg/mL (≈ 0.831 µM).

For `Cc1ccc(Nc2cc3nc4ccccc4n(-c4ccc(F)cc4)c-3c/c2=N\C2CCCCC2)cn1` [TBI-905, 5-(4-Fluorophenyl)-3-cyclohexylimino-2-(6-methyl-3-pyridyl)amino-3,5-dihydrophenazine], the MIC came out at 0.057 µg/mL (≈ 0.119 µM). The same measure, in the same setting: next, `Cc1cncc(Nc2cc3nc4ccccc4n(-c4ccccc4)c-3c/c2=N\C2CCC(O)CC2)c1` (stereo not drawn) [TBI-085, 5-Phenyl-3-(4-hydroxycyclohexyl)imino-2-(5-methyl-3-pyridyl)amino-3,5-dihydrophenazine]: 0.5 µg/mL (≈ 1.05 µM); `COc1ncccc1Nc1cc2nc3ccccc3n(-c3ccc(OC(F)(F)F)cc3)c-2c/c1=N\C1CCOCC1` [TBI-167, 5-(4-Trifluoromethoxyphenyl)-3-(4-tetrahydropyranyl)imino-2-(2-methoxy-3-pyridyl)amino-3,5-dihydrophenazine]: 0.016 µg/mL (≈ 0.0285 µM). In the case of `COC1CCC(/N=c2\cc3n(-c4ccc(NC(C)=O)cc4)c4ccccc4nc-3cc2Nc2ccc(C)nc2)CC1` (stereo not drawn) [TBI-1229], the MIC was 0.482 µg/mL (≈ 0.882 µM).

For `c1ccc(-n2c3c/c(=N\C4CCN(C5CCCC5)CC4)c(Nc4cccnc4)cc-3nc3ccccc32)cc1` [TBI-060, 5-Phenyl-3-(N-cyclopentyl-4-piperidyl)imino-2-(3-pyridyl)amino-3,5-dihydrophenazine], the MIC was determined as 1 µg/mL (≈ 1.94 µM). Turning to `Cc1ccc(Nc2cc3nc4ccccc4n(-c4ccc(Br)cc4)c-3c/c2=N\C2CC2)cn1` [TBI-100, 5-(4-Bromophenyl)-3-cyclopropylimino-2-(6-methyl-3-pyridyl)amino-3,5-dihydrophenazine], the MIC turned out to be 0.011 µg/mL (≈ 0.0222 µM). As for `COc1ncccc1Nc1cc2nc3ccccc3n(-c3ccccc3)c-2c/c1=N\C(C)C` [TBI-061, 5-Phenyl-3-(1-methylethyl)imino-2-(2-methoxy-3-pyridyl)amino-3,5-dihydrophenazine], the MIC came to 0.06 µg/mL (≈ 0.138 µM). Regarding `COc1ccc2nc3cc(Nc4cccnc4OC)/c(=N/C4CCC(OC)CC4)cc-3n(-c3ccc(Cl)cc3)c2c1` (stereo not drawn) [TBI-941, 7-Methoxy-5-(4-chlorophenyl)-3-(4-methoxycyclohexyl)imino-2-(2-methoxy-3-pyridyl)amino-3,5-dihydrophenazine], the MIC was found to be 0.06 µg/mL (≈ 0.105 µM). `COc1ccc(Nc2cc3nc4ccccc4n(-c4ccccc4)c-3c/c2=N\C2CCC2)cn1` [TBI-512, 5-Phenyl-3-cyclobutylimino-2-(6-methoxy-3-pyridyl)amino-3,5-dihydrophenazine]: the MIC was found to be 0.41 µg/mL (≈ 0.916 µM). Take `COc1ncccc1Nc1cc2nc3ccccc3n(-c3ccc(C(F)(F)F)cc3)c-2c/c1=N\CCN1CCOCC1` [TBI-704, 5-(4-Trifluoromethylphenyl)-3-(2-morpholinoethyl)imino-2-(2-methoxy-3-pyridyl)amino-3,5-dihydrophenazine]: the MIC turned out to be 0.061 µg/mL (≈ 0.106 µM). In the case of `COc1ncccc1Nc1cc2nc3ccccc3n(-c3ccc(Br)cc3)c-2c/c1=N\C1CCCCC1` [TBI-517, 5-(4-Bromophenyl)-3-cyclohexylimino-2-(2-methoxy-3-pyridyl)amino-3,5-dihydrophenazine], the MIC turned out to be 0.029 µg/mL (≈ 0.0523 µM). As to `COc1ncccc1Nc1cc2nc3ccccc3n(-c3ccccc3)c-2c/c1=N\CCN1CCOCC1` [TBI-065, 5-Phenyl-3-(2-morpholinoethyl)imino-2-(2-methoxy-3-pyridyl)amino-3,5-dihydrophenazine], the MIC was 0.08 µg/mL (≈ 0.158 µM).

With `COC1CCC(/N=c2\cc3n(-c4cccc(OC(F)(F)F)c4)c4ccccc4nc-3cc2Nc2cccnc2C)CC1` (stereo not drawn) [TBI-1033, 5-(3-Trifluoromethoxyphenyl)-3-(4-methoxycyclohexyl)imino-2-(2-methyl-3-pyridyl)amino-3,5-dihydrophenazine], the MIC amounted to 0.242 µg/mL (≈ 0.422 µM).

As to `Cc1ccc(Nc2cc3nc4ccccc4n(-c4ccc(C(F)(F)F)cc4)c-3c/c2=N\C2CC2)cn1` [TBI-716, 5-(4-Trifluoromethylphenyl)-3-cyclopropylimino-2-(6-methyl-3-pyridyl)amino-3,5-dihydrophenazine], the MIC came to 0.041 µg/mL (≈ 0.0844 µM). Same read-out and setting: next, `CC(=O)Nc1ccc(Nc2cc3nc4ccccc4n(-c4ccc(C(F)(F)F)cc4)c-3c/c2=N\C(C)C)cn1` [TBI-711, 5-(4-Trifluoromethylphenyl)-3-(1-methylethyl)imino-2-(6-acetamino-3-pyridyl)amino-3,5-dihydrophenazine]: 0.11 µg/mL (≈ 0.207 µM); `Clc1ccc(-n2c3c/c(=N\C4CCC4)c(Nc4cncc(Br)c4)cc-3nc3ccccc32)cc1` [TBI-883, 5-(4-Chlorophenyl)-3-cyclobutylimino-2-(5-bromo-3-pyridyl)amino-3,5-dihydrophenazine]: 0.03 µg/mL (≈ 0.0565 µM); `COc1ncccc1Nc1cc2nc3ccc(F)cc3n(-c3ccc(Cl)c(Cl)c3)c-2c/c1=N\C1CCC1` [TBI-886, 7-Fluoro-5-(3,4-dichlorophenyl)-3-cyclobutylimino-2-(2-methoxy-3-pyridyl)amino-3,5-dihydrophenazine]: 0.06 µg/mL (≈ 0.112 µM).

Turning to `COc1ncccc1Nc1cc2nc3ccccc3n(-c3ccc(F)c(F)c3)c-2c/c1=N\C1CCCCC1` [TBI-531, 5-(3,4-Difluorophenyl)-3-cyclohexylimino-2-(2-methoxy-3-pyridyl)amino-3,5-dihydrophenazine], the MIC was determined as 0.03 µg/mL (≈ 0.0586 µM).

In the case of `Cc1ccc(-n2c3c/c(=N\C4CCCCC4)c(Nc4cccnc4C)cc-3nc3ccccc32)cc1` [TBI-312, 5-(4-Methylphenyl)-3-cyclohexylimino-2-(2-methyl-3-pyridyl)amino-3,5-dihydrophenazine], the MIC worked out at 0.053 µg/mL (≈ 0.112 µM). In the case of `COc1ncccc1Nc1cc2nc3ccccc3n(-c3ccc(Cl)cc3Cl)c-2c/c1=N\C1CCC(OC)CC1` (stereo not drawn) [TBI-371, 5-(2,4-Dichlorophenyl)-3-(4-methoxycyclohexyl)imino-2-(2-methoxy-3-pyridyl)amino-3,5-dihydrophenazine], the MIC worked out at 0.044 µg/mL (≈ 0.0766 µM). For `COc1ncccc1Nc1cc2nc3ccccc3n(-c3ccc(Cl)cc3Cl)c-2c/c1=N\C1CC1` [TBI-370, 5-(2,4-Dichlorophenyl)-3-cyclopropylimino-2-(2-methoxy-3-pyridyl)amino-3,5-dihydrophenazine], the MIC was determined as 0.052 µg/mL (≈ 0.104 µM). Take `Cc1ccc(-n2c3c/c(=N\C(C)C)c(Nc4ccc(C)nc4)cc-3nc3ccccc32)cc1` [TBI-315, 5-(4-Methylphenyl)-3-(1-methylethyl)imino-2-(6-methyl-3-pyridyl)amino-3,5-dihydrophenazine]: the MIC was found to be 0.057 µg/mL (≈ 0.131 µM).

On to `Cc1ccc(-n2c3c/c(=N\C4CC4)c(Nc4ccc(C)nc4)cc-3nc3ccccc32)cc1` [TBI-340, 5-(4-Methylphenyl)-3-cyclopropylimino-2-(6-methyl-3-pyridyl)amino-3,5-dihydrophenazine], for which the MIC was found to be 0.149 µg/mL (≈ 0.345 µM). Regarding `COc1ncccc1Nc1cc2nc3cc(F)ccc3n(-c3ccc(Cl)c(Cl)c3)c-2c/c1=N\C(C)C` [TBI-874, 8-Fluoro-5-(3,4-dichlorophenyl)-3-(1-methylethyl)imino-2-(2-methoxy-3-pyridyl)amino-3,5-dihydrophenazine], the MIC was 0.129 µg/mL (≈ 0.247 µM).

Regarding `Cc1cncc(Nc2cc3nc4ccccc4n(-c4ccc(F)cc4)c-3c/c2=N\C2CCOCC2)c1` [TBI-1028, 5-(4-Fluorophenyl)-3-(4-tetrahydropyranyl)imino-2-(5-methyl-3-pyridyl)amino-3,5-dihydrophenazine], the MIC is 0.06 µg/mL (≈ 0.125 µM). On the same count and under the same terms, next, `Cc1ccc(Nc2cc3nc4cc(F)ccc4n(-c4ccc(Cl)c(Cl)c4)c-3c/c2=N\C2CC2)cn1` [TBI-888]: 0.028 µg/mL (≈ 0.0555 µM). Consider `COC1CCC(/N=c2\cc3n(-c4ccc(C)cc4)c4ccccc4nc-3cc2Nc2cncc(C)c2)CC1` (stereo not drawn) [TBI-330, 5-(4-Methylphenyl)-3-(4-methoxycyclohexyl)imino-2-(5-methyl-3-pyridyl)amino-3,5-dihydrophenazine], for which the MIC amounted to 0.035 µg/mL (≈ 0.0695 µM).
